{"source": "ChEMBL document CHEMBL4811258", "about": "“Potent Antimalarials with Development Potential Identified by Structure-Guided Computational Optimization of a Pyrrole-Based Dihydroorotate Dehydrogenase Inhibitor Series” (J Med Chem, 2021)", "key": {"[1]": {"experiment": "Inhibition of Plasmodium falciparum DHODH expressed in Escherichia coli BL21-DE3 using L-dihydroorotate as substrate by steady-state DCIP method"}, "Albumin": {"target": "Albumin (Bos taurus, UniProt P02769)", "sequence (P02769 whole entry)": "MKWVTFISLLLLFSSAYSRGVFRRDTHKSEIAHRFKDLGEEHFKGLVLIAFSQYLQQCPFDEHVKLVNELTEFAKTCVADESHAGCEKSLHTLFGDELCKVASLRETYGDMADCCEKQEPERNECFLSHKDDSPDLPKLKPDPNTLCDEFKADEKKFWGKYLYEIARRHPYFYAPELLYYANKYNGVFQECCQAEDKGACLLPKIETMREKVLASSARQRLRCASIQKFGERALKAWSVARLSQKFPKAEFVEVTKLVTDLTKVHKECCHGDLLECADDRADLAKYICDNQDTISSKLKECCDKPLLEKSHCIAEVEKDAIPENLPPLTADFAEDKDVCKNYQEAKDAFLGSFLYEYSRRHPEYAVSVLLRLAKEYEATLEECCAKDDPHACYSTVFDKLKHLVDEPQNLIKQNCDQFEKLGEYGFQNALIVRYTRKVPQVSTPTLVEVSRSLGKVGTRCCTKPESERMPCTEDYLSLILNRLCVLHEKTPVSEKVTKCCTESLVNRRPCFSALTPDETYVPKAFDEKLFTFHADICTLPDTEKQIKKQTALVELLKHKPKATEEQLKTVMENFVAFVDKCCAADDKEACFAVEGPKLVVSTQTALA", "experiment": "Binding affinity to bovine serum albumin by Albumax assay", "type": "ADME", "details": "cattle, isolated protein"}, "[2]": {"experiment": "Binding affinity to microsome (unknown origin)", "type": "ADME", "details": "microsomes"}, "[3]": {"experiment": "Intrinsic clearance in mouse liver microsomes at 1 uM measured up to 4 hrs by LC-MS analysis", "type": "ADME, Microsome"}, "[4]": {"experiment": "Unbound intrinsic clearance in mouse liver microsomes at 1 uM measured up to 4 hrs by LC-MS analysis", "type": "ADME, Microsome"}, "[5]": {"experiment": "Plasma clearance in Swiss mouse at 1 mg/kg, iv measured up to 24 hrs by LC-MS analysis", "type": "ADME, organism-based"}, "[6]": {"experiment": "Volume of distribution at steady state in Swiss mouse at 1 mg/kg, iv measured up to 24 hrs by LC-MS analysis", "type": "ADME, organism-based", "details": "in vivo, read-out: Vdss"}, "[7]": {"experiment": "Half life in Swiss mouse at 10 mg/kg, po measured up to 24 hrs by LC-MS analysis", "type": "ADME, organism-based", "details": "in vivo"}, "[8]": {"experiment": "Tmax in Swiss mouse at 10 mg/kg, po measured up to 24 hrs by LC-MS analysis", "type": "ADME, organism-based", "details": "in vivo"}, "[9]": {"experiment": "Cmax in Swiss mouse at 10 mg/kg, po measured up to 24 hrs by LC-MS analysis", "type": "ADME, organism-based", "parameters": "route oral, dose 10 mg/kg, time <=24", "details": "in vivo"}, "[10]": {"experiment": "AUC (0 to infinity) in Swiss mouse at 10 mg/kg, po measured up to 24 hrs by LC-MS analysis", "type": "ADME, organism-based", "parameters": "route oral, dose 10 mg/kg, time <=24", "details": "in vivo"}, "[11]": {"experiment": "Oral bioavailability in Swiss mouse at 10 mg/kg measured up to 24 hrs by LC-MS analysis", "type": "ADME, organism-based", "details": "in vivo"}, "[12]": {"experiment": "Plasma clearance in Sprague-Dawley rat at […], iv measured up to 24 hrs", "type": "ADME, organism-based", "details": "dose 2.6 mg/kg"}, "[13]": {"experiment": "Volume of distribution at steady state in Sprague-Dawley rat at […], iv measured up to 24 hrs", "type": "ADME, organism-based", "details": "in vivo, dose 2.6 mg/kg, read-out: Vdss"}, "[14]": {"experiment": "Apparent half life in Sprague-Dawley rat at 19 mg/kg, po measured up to 24 hrs", "type": "ADME, organism-based", "details": "in vivo, read-out: t1/2(app) (converted)"}, "[15]": {"experiment": "Tmax in Sprague-Dawley rat at 19 mg/kg, po measured up to 24 hrs", "type": "ADME, organism-based", "details": "in vivo"}, "[16]": {"experiment": "Cmax in Sprague-Dawley rat at 19 mg/kg, po measured up to 24 hrs", "type": "ADME, organism-based", "parameters": "route oral, dose 19 mg/kg, time <=24", "details": "in vivo"}, "[17]": {"experiment": "AUC (0 to infinity) in Sprague-Dawley rat at 19 mg/kg, po measured up to 24 hrs", "type": "ADME, organism-based", "parameters": "route oral, dose 19 mg/kg, time <=24", "details": "in vivo"}, "[18]": {"experiment": "Oral bioavailability in Sprague-Dawley rat at 19 mg/kg measured up to 24 hrs", "type": "ADME, organism-based", "details": "in vivo"}, "Plasmodium falciparum [19]": {"tested_on": "Plasmodium falciparum", "experiment": "Antiplasmodial activity against Plasmodium falciparum 3D7 Uganda infected in human erythrocytes assessed as parasite killing using albumax media measured after 72 hrs by SYBR Green assay", "type": "functional, organism-based", "details": "3D7, 72 h"}, "Plasmodium falciparum [20]": {"tested_on": "Plasmodium falciparum", "experiment": "Antiplasmodial activity against Plasmodium falciparum Dd2 Uganda infected in human erythrocytes assessed as parasite killing using albumax media measured after 72 hrs by SYBR Green assay", "type": "functional, organism-based", "details": "Dd2, 72 h"}, "Plasmodium falciparum [21]": {"tested_on": "Plasmodium falciparum", "experiment": "Antiplasmodial activity against Plasmodium falciparum Uganda field isolated from patients infected in human erythrocytes assessed as parasite killing using albumax media measured after 72 hrs by SYBR Green assay", "type": "functional, organism-based"}, "Plasmodium falciparum [22]": {"tested_on": "Plasmodium falciparum", "experiment": "Antimalarial activity against Plasmodium falciparum 3D70087/N9 infected in orally dosed NOD-SCID IL2Rgamma null mouse assessed as parasitemia level administered days after 3 post infection once daily for 4 days measured on day 7 by flow cytometry", "type": "functional", "details": "time 4 day"}, "[23]": {"experiment": "Unbound AUC in orally dosed NOD-SCID IL2Rgamma null mouse infected with Plasmodium falciparum 3D70087/N9 administered days after 3 post infection once daily for 4 days measured on day 7 by flow cytometry", "type": "ADME, organism-based", "details": "in vivo, po, 96 h, time 4 day"}, "Plasmodium falciparum [24]": {"tested_on": "Plasmodium falciparum", "experiment": "Antimalarial activity against Plasmodium falciparum 3D70087/N9 infected in NOD-SCID IL2Rgamma null mouse assessed as parasitemia level at 10 mg/kg, po administered days after 3 post infection once daily for 4 days measured on day 7 by flow cytometry", "type": "functional, organism-based", "details": "time 4.0 day"}, "Plasmodium falciparum [25]": {"tested_on": "Plasmodium falciparum", "experiment": "Antimalarial activity against Plasmodium falciparum 3D70087/N9 infected in orally dosed NOD-SCID IL2Rgamma null mouse assessed as parasitemia level in human red blood cells at 16.7 mg/kg, po administered days after 1 day post infection twice daily for 6 days measured on day 7 by flow cytometry", "type": "functional, organism-based", "details": "time 6.0 day"}, "physchem [26]": {"experiment": "physchem", "details": "FaSSGF, pH 1.6"}, "physchem [27]": {"experiment": "physchem", "details": "FaSSIF, pH 6.5"}, "physchem [28]": {"experiment": "physchem", "details": "FeSSIF, pH 5.8"}, "physchem [29]": {"experiment": "physchem", "details": "PBS, pH 7.4"}, "in vitro [30]": {"experiment": "in vitro", "details": "human, plasma"}, "in vitro [31]": {"experiment": "in vitro", "details": "rat, plasma"}, "in vitro [32]": {"experiment": "in vitro", "details": "mouse, plasma"}, "in vitro [33]": {"experiment": "in vitro", "details": "human, caco-2, pH 7.4"}, "in vitro [34]": {"experiment": "in vitro", "details": "human, caco-2, pH 7.4", "remark": "listed apart in the source"}, "Plasmodium falciparum [35]": {"tested_on": "Plasmodium falciparum", "experiment": "microbe, parasite or virus in culture", "details": "3D7, 72 h"}, "[36]": {"experiment": "Inhibition of Plasmodium vivax DHODH expressed in Escherichia coli BL21-DE3 using L-dihydroorotate as substrate by steady-state DCIP method"}, "[37]": {"target": "Dihydroorotate dehydrogenase (quinone), mitochondrial (Homo sapiens, UniProt Q02127)", "sequence (Q02127 whole entry)": "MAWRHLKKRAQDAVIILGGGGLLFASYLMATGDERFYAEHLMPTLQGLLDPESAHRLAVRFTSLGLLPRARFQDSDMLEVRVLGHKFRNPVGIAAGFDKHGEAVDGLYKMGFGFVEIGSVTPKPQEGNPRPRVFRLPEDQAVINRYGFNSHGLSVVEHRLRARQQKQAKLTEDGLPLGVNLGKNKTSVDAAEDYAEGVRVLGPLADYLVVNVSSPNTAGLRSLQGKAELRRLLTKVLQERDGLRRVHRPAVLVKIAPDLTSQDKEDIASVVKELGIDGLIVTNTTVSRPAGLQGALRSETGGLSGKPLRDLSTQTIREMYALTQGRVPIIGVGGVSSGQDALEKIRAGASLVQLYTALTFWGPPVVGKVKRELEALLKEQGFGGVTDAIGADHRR", "type": "ADME"}, "[38]": {"experiment": "Lipophilicity, logD of compound at pH 7.4", "type": "physicochemical", "details": "buffer"}}, "note": "Active and inactive are the calls of the source. The calls are words filed in the database; no cut-off is given here.", "data": [{"smiles": "Cc1cc(Nc2ccc(S(F)(F)(F)(F)F)cc2)n2nc(C(F)(F)F)nc2n1", "values": [{"measurement": "IC50", "setting": "[1]", "result": 30, "unit": "nM"}, {"measurement": "Activity", "setting": "Albumin", "result": 83.1, "unit": "%"}, {"measurement": "Activity", "setting": "[2]", "result": 71.7, "unit": "%"}, {"measurement": "Intrinsic clearance", "setting": "[3]", "result": "< 7", "unit": "µL/min/mg"}, {"measurement": "CL free", "setting": "[4]", "result": "< 25", "unit": "µL/min/mg"}, {"measurement": "clearance", "setting": "[5]", "result": 8.2, "unit": "mL/min/kg"}, {"measurement": "Vd", "setting": "[6]", "result": 2.3, "unit": "L/kg"}, {"measurement": "half-life", "setting": "[7]", "result": 2.5, "unit": "h"}, {"measurement": "Tmax", "setting": "[8]", "result": 1.2, "unit": "h"}, {"measurement": "Cmax", "setting": "[9]", "result": 3.1, "unit": "µM"}, {"measurement": "AUC(0-inf)", "setting": "[10]", "result": 22.8, "unit": "µM·h"}, {"measurement": "bioavailability", "setting": "[11]", "result": 46, "unit": "%"}, {"measurement": "clearance at 24 h", "setting": "[12]", "result": 6.5, "unit": "mL/min/kg"}, {"measurement": "Vd at 24 h", "setting": "[13]", "result": 5.9, "unit": "L/kg"}, {"measurement": "half-life", "setting": "[14]", "result": 16, "unit": "h"}, {"measurement": "Tmax", "setting": "[15]", "result": 7, "unit": "h"}, {"measurement": "Cmax", "setting": "[16]", "result": 4, "unit": "µM"}, {"measurement": "AUC(0-inf)", "setting": "[17]", "result": 120, "unit": "µM·h"}, {"measurement": "bioavailability", "setting": "[18]", "result": 57, "unit": "%"}, {"measurement": "EC50", "setting": "Plasmodium falciparum [19]", "result": 2.9, "unit": "nM"}, {"measurement": "EC50", "setting": "Plasmodium falciparum [20]", "result": 2.9, "unit": "nM"}, {"measurement": "EC50", "setting": "Plasmodium falciparum [21]", "result": 3.7, "unit": "nM"}, {"measurement": "ED50", "setting": "Plasmodium falciparum [22]", "result": 5.6, "unit": "mg/kg"}, {"measurement": "fAUC", "setting": "[23]", "result": 0.85, "unit": "µM·h"}, {"measurement": "Activity", "setting": "Plasmodium falciparum [24]", "result": "Active"}, {"measurement": "Activity", "setting": "Plasmodium falciparum [25]", "result": "Active"}, {"measurement": "solubility at 1 h", "setting": "physchem [26]", "result": 6.8, "unit": "µg/mL"}, {"measurement": "solubility at 5 h", "setting": "physchem [27]", "result": 5.1, "unit": "µg/mL"}, {"measurement": "solubility at 5 h", "setting": "physchem [28]", "result": 27.6, "unit": "µg/mL"}, {"measurement": "solubility at 5 h", "setting": "physchem [29]", "result": 2, "unit": "µg/mL"}, {"measurement": "fraction unbound", "setting": "in vitro [30]", "result": 0.002}, {"measurement": "fraction unbound", "setting": "in vitro [31]", "result": 0.025}, {"measurement": "fraction unbound", "setting": "in vitro [32]", "result": 0.03}, {"measurement": "Papp A→B", "setting": "in vitro [33]", "result": 54, "unit": "×10⁻⁶ cm/s"}, {"measurement": "Papp B→A", "setting": "in vitro [34]", "result": 49, "unit": "×10⁻⁶ cm/s"}, {"measurement": "EC50", "setting": "Plasmodium falciparum [35]", "result": 6, "unit": "nM"}]}, {"smiles": "Cc1c(Cc2ccc(F)c3ccncc23)c[nH]c1C(=O)NC1CC1", "values": [{"measurement": "IC50", "setting": "[1]", "result": 6.1, "unit": "nM"}, {"measurement": "IC50", "setting": "[36]", "result": 4, "unit": "nM"}, {"measurement": "IC50", "setting": "[37]", "result": "> 100000", "unit": "nM"}, {"measurement": "logD", "setting": "[38]", "result": "< 3.4"}, {"measurement": "EC50", "setting": "Plasmodium falciparum [35]", "result": 0.92, "unit": "nM"}]}, {"smiles": "Cc1c(Cc2ccc(F)c3ccncc23)c[nH]c1C(=O)N1CC(F)(F)C1", "values": [{"measurement": "IC50", "setting": "[1]", "result": 11, "unit": "nM"}, {"measurement": "IC50", "setting": "[36]", "result": 6.5, "unit": "nM"}, {"measurement": "IC50", "setting": "[37]", "result": "> 100000", "unit": "nM"}, {"measurement": "logD", "setting": "[38]", "result": "< 3.4"}, {"measurement": "EC50", "setting": "Plasmodium falciparum [35]", "result": 3.4, "unit": "nM"}]}, {"smiles": "Cc1c(Cc2cccc3ccncc23)c[nH]c1C(=O)N1CC(F)(F)C1", "values": [{"measurement": "IC50", "setting": "[1]", "result": 16, "unit": "nM"}, {"measurement": "IC50", "setting": "[36]", "result": 7.7, "unit": "nM"}, {"measurement": "IC50", "setting": "[37]", "result": "> 100000", "unit": "nM"}, {"measurement": "logD", "setting": "[38]", "result": "< 3.4"}, {"measurement": "EC50", "setting": "Plasmodium falciparum [35]", "result": 3.8, "unit": "nM"}]}, {"smiles": "COc1ccc(Cc2c[nH]c(C(=O)NC3CC3)c2C)c2cnccc12", "values": [{"measurement": "IC50", "setting": "[1]", "result": 23, "unit": "nM"}, {"measurement": "IC50", "setting": "[36]", "result": 21, "unit": "nM"}, {"measurement": "IC50", "setting": "[37]", "result": "> 50000", "unit": "nM"}, {"measurement": "logD", "setting": "[38]", "result": "< 3.4"}, {"measurement": "EC50", "setting": "Plasmodium falciparum [35]", "result": 1.7, "unit": "nM"}]}]}
